# Measurements published in patent publication US8679776B2, “Activatable dyes” (University of Massachusetts, priority 2007, dated 2014).
# What was measured:
# [1] = Photoactivation of NVOC-Oxazine 16 in vitro (acetonitrile solution, long-wave UV); type: physicochemical
# Excerpt: When novel, non-fluorescent caged dye (16) is irradiated with long-wave UV light (about 360 nm), the NVOC group is photolytically removed, and rapidly decarboxylates to form the oxazine 1 leuco dye (15). The non-fluorescent leuco dye rapidly reacts with oxygen in solution to generate the brightly fluorescent oxazine 1 dye (14). […] In such an evaluation, maximal emission was observed after less than four minutes using a hand-held longwave UV lamp. Irradiation in a fluorescence microscope, with either arc lamp or laser illumination, photoactivates this dye in less than 1 second due to the much higher photon flux through the microscope objective.
# Referring to FIGS. 15A and 15B, NVOC-Oxazine 16 was dissolved in acetonitrile (2 mL) and placed in a fluorescence cuvette. The rate of photo-uncaging was monitored by continuous excitation at 365 nm and emission detection at 665 nm in a SPEX Fluoromax-3. Under these conditions, fluorescence activation reached a maximum in approximately two minutes.
# Transferrin = target: T1, Transferrin (Homo sapiens, UniProt P02787); test: Labeling of transferrin with caged dye, SDS-PAGE imaged before and after photoactivation; settings: for near-IR fluorescence before photoactivation / near-IR fluorescence after photoactivation: 630 nm excitation, 670 nm long pass filter; for near-IR fluorescence after photoactivation: hand-held longwave UV lamp for 1 min
# T1 construct: purchased Sigma-Aldrich
# T1 sequence (P02787 20-698, species assumed): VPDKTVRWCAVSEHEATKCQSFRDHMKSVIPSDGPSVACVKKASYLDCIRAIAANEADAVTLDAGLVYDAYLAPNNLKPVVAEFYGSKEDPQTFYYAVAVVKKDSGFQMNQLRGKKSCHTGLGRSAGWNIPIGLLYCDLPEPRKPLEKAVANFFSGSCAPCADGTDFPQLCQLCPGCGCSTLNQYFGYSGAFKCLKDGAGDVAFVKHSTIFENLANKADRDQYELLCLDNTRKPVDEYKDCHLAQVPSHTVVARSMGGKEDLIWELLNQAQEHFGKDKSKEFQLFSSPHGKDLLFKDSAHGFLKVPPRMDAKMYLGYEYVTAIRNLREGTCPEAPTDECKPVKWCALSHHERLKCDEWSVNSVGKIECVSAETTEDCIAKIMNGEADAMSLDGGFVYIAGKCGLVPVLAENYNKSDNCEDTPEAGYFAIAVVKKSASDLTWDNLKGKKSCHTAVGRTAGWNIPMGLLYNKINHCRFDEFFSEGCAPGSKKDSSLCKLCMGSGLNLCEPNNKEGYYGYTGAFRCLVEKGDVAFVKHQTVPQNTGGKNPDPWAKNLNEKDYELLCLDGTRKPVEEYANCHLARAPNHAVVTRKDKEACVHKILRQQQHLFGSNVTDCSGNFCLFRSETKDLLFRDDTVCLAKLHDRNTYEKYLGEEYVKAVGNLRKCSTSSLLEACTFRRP
# Experimental: FIG. 20 is an SDS-PAGE gel of transferrin labeled with a caged oxazine dye, imaged before and after photoactivation. Transferrin in lanes 1-3 is labeled with NVOC-MR121 (25). Lanes 4-6 are labeled with tetramethyl-rhodamine (TMR).
# Transferrin (Sigma-Aldrich®, 5 mg) was dissolved in 0.5 ml of 0.1M NaHCO3, pH 8.3. The caged oxazine dye 25 (0.2 mg) in 0.02 ml of DMSO and added to the transferrin solution and incubated at room temperature for one hour. The labeled protein was separated from the dye on a PD-10 column, and analyzed by SDS-PAGE (FIG. 20). The transferrin conjugate was initially non-fluorescent (FIG. 20a).
# CHO-K1 cells = test: Photoactivation in live mammalian tissue culture cells; type: cell-based
# Experimental: Photoactivation of NVOC-MR121 in live CHO-K1 cells before (a) and after (b, c) brief exposure to DAPI-filtered light (˜100 ms). In (b) the field was limited to two cells, while in (c) the entire field was illuminated (40× objective). Cells were imaged with a Cy5 filter set.
# Referring to FIGS. 16A (before) and 16B (after photoactivation), CHO-K1 cells were incubated with 1 μM of NVOC-Oxazine 16 for one hour, then imaged on a fluorescence microscope at 40× with a Cy5 filter set (Zeiss Axiovert 200M). […] All of these latent fluorophores are chemically stable in cells, and can be efficiently photoactivated 24 hours after initial incubation.
molecule,measurement,setting,value
"CCN(CC)c1ccc2nc3ccc(=[N+](CC)CC)cc-3oc2c1.[O-][Cl+3]([O-])([O-])[O-] [oxazine 1, reference compound]",maximal emission,[1]; active dye generated by uncaging,about 665 nm
transferrin conjugate: transferrin labeled with caged oxazine dye NVOC-MR121 NHS ester 25,near-IR fluorescence before photoactivation,Transferrin; SDS-PAGE,non-fluorescent
same,near-IR fluorescence before photoactivation,"Transferrin; SDS-PAGE, listed as labeled transferrin",No near-IR fluorescence is visible
same,near-IR fluorescence after photoactivation,Transferrin,bright near-IR fluorescence
same,near-IR fluorescence after photoactivation,Transferrin; listed as labeled transferrin,brightly fluorescent in the near-IR
Bis-NH NVOC-Oxazine [Compound 41],staining pattern after photoactivation,CHO-K1 cells,more diffuse staining
TMR-Tf: transferrin labeled with tetramethyl-rhodamine (TMR) [reference compound],"fluorescence before photoactivation, TMR channel","Transferrin; SDS-PAGE, 520 nm excitation and 575DF20 filter",readily visible
NVOC-Oxazine [Compound 16],time to maximal emission after exposure to long-wave UV light,"[1]; acetonitrile solution, hand-held longwave UV lamp, emission about 665 nm",less than four
same,time for fluorescence activation to reach a maximum,"[1]; acetonitrile, continuous excitation at 365 nm, emission detection at 665 nm, SPEX Fluoromax-3",approximately two
same,time to photoactivate in a fluorescence microscope,[1]; arc lamp or laser illumination through the microscope objective,less than 1 second
same,cell permeability,CHO-K1 cells,cell-permeable
same,cellular fluorescence after brief exposure to DAPI-filtered light,"CHO-K1 cells; 1 μM, one hour incubation, 365 nm, <1 second, Cy5 filter set",dramatic increase in cellular fluorescence
